Source: the supplement of paper PMC10307832

Experiments:
Assay in all cases: relative viability (nuclei count vs DMSO), 5 days (fraction); higher = more cells survive
[1] = compound: C1CC(C1)(C(=O)O)C(=O)O.[NH2-].[NH2-].[Pt+2] [Carboplatin]
Method in brief: (§1)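 Vehicle-anchored 1536-well plates of lung cancer cell lines, held overnight at 37 °C, were pinned with five library-drug doses (not always all listed) spaced by √10. No medium change followed over the next 5 days, after which the cells were fixed, permeabilised and Hoechst-stained together and imaged at 4×. Nuclei were counted with MetaXpress, and viability is treated-well nuclei over vehicle-well nuclei, taken as a median across plates. Plates passed with control CV below 25% and at least one doubling.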

[2] = compound: CC[C@H](C)N1C=C(C2=C(C=C(C=C21)C3=CN=C(C=C3)N4CCNCC4)C(=O)NCC5=C(C=C(NC5=O)C)C)C [GSK126]
Method in brief: as §1

[3] = compound: NS(=O)(=O)OC[C@@H]1C[C@@H](n2ccc3c(N[C@H]4CCc5ccccc54)ncnc32)C[C@@H]1O [MLN4924]
Method in brief: as §1

[4] = compound: CC[C@H](C)N1C=C(C2=C(C=C(C=C21)C3=CN=C(C=C3)N4CCNCC4)C(=O)NCC5=C(C=C(NC5=O)C)C)C [GSK126] + Cc1nc(Nc2ncc(C(=O)Nc3c(C)cccc3Cl)s2)cc(N2CCN(CCO)CC2)n1 [Dasatinib] (partner 0.075 µM)
Method in brief: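 Lung cancer cell lines in 1536-well plates were dosed by pin tool the day after seeding, either with one drug alone or with a fixed anchor-drug dose plus five library-drug doses (not always all listed) in √10 steps. After 5 days, cells were fixed and their nuclei stained in one step (final 0.05% Triton X-100, 1% formaldehyde, 1 ug/ml Hoechst), then counted on 4× images. Relative viability is the nuclei count in treated wells divided by that in vehicle wells. Values are medians of duplicate plates.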

Row | Cell Line | relative viability ([1]; 0.08 µM) | relative viability ([1]; 0.253 µM) | relative viability ([1]; 0.8 µM) | relative viability ([1]; 2.53 µM) | relative viability ([1]; 8 µM) | relative viability ([2]; 0.08 µM) | relative viability ([2]; 0.253 µM) | relative viability ([2]; 0.8 µM) | relative viability ([2]; 2.53 µM) | relative viability ([2]; 8 µM) | relative viability ([3]; 0.04 µM) | relative viability ([3]; 0.1265 µM) | relative viability ([3]; 0.4 µM) | relative viability ([3]; 1.265 µM) | relative viability ([3]; 4 µM) | relative viability ([4]; first compound 0.08 µM) | relative viability ([4]; first compound 0.253 µM) | relative viability ([4]; first compound 0.8 µM) | relative viability ([4]; first compound 2.53 µM) | relative viability ([4]; first compound 8 µM)
1 | NCI-H322M | 1.1 | 0.918 | 0.984 | 0.969 | 0.931 | 0.925 | 0.959 | 0.992 | 1.09 | 0.968 | 1.26 | 1.3 | 0.684 | 0.273 | 0.35 | 0.247 | 0.252 | 0.266 | 0.278 | 0.27
2 | NCI-H358 | 1.25 | 1.07 | 1.06 | 0.891 | 0.928 | 1.07 | 0.965 | 0.914 | 1.05 | 1.01 | 1.02 | 0.904 | 0.327 | 0.201 | 0.213 | 0.202 | 0.167 | 0.173 | 0.15 | 0.175
3 | NCI-H441 | 0.957 | 1.08 | 0.925 | 1 | 0.801 | 1.23 | 0.954 | 0.986 | 1.05 | 0.995 | 0.943 | 0.822 | 0.512 | 0.148 | 0.185 | 0.618 | 0.688 | 0.458 | 0.796 | 0.407
4 | NCI-H460 | 1.02 | 0.981 | 0.994 | 0.915 | 0.412 | 1.08 | 1.06 | 0.984 | 1.01 | 1.05 | 0.976 | 0.985 | 0.914 | 0.288 | 0.105 | 0.562 | 0.483 | 0.455 | 0.421 | 0.569
5 | NCI-H520 | 1.01 | 0.915 | 0.947 | 0.962 | 0.822 | 1.21 | 0.979 | 0.932 | 1.22 | 1.03 | 0.706 | 0.563 | 0.533 | 0.24 | 0.243 | 0.184 | 0.172 | 0.185 | 0.19 | 0.238
6 | NCI-H522 | 1.12 | 0.963 | 0.922 | 0.873 | 0.881 | 1.1 | 0.929 | 1.01 | 0.977 | 0.989 | 0.87 | 0.777 | 0.515 | 0.397 | 0.426 | 0.871 | 0.699 | 0.794 | 1.02 | 0.775
7 | NCI-H596 | 0.993 | 0.995 | 0.938 | 0.826 | 0.752 | 0.983 | 0.9 | 0.965 | 1.01 | 0.981 | 0.973 | 1.1 | 0.554 | 0.854 | 0.739 | 0.692 | 0.537 | 0.633 | 0.887 | 0.594
8 | NCI-H647 | 1.13 | 1.02 | 0.986 | 0.944 | 0.767 | 0.879 | 0.964 | 0.896 | 1.05 | 1 | 0.881 | 0.619 | 0.221 | 0.0551 | 0.0691 | 0.193 | 0.206 | 0.171 | 0.111 | 0.179
9 | NCI-H650 | 0.988 | 0.874 | 0.959 | 0.864 | 0.668 | 0.991 | 0.962 | 0.939 | 0.914 | 1.03 | 0.618 | 0.668 | 0.268 | 0.183 | 0.194 | 0.468 | 0.493 | 0.432 | 0.39 | 0.455
10 | NCI-H661 | 0.993 | 1.01 | 0.984 | 0.938 | 0.903 | 1.03 | 0.945 | 0.986 | 1.03 | 1 | 0.894 | 0.857 | 0.686 | 0.421 | 0.426 | 1.11 | 0.745 | 0.755 | 0.664 | 0.653
11 | NCI-H727 | 1.11 | 0.841 | 0.94 | 0.83 | 0.671 | 1.02 | 0.946 | 0.849 | 0.997 | 1.02 | 0.844 | 0.587 | 0.5 | 0.307 | 0.326 | 0.353 | 0.36 | 0.39 | 0.416 | 0.348
12 | NCI-H838 | 1.03 | 1.03 | 0.949 | 0.921 | 0.951 | 1.01 | 0.919 | 0.913 | 0.971 | 0.926 | 0.93 | 0.488 | 0.325 | 0.158 | 0.219 | 0.344 | 0.308 | 0.313 | 0.266 | 0.209
13 | NCI-H1355 | 1.09 | 1.05 | 0.989 | 1 | 0.876 | 1.08 | 0.982 | 0.975 | 1.06 | 1.01 | 0.976 | 1.01 | 0.783 | 0.369 | 0.34 | 0.842 | 0.733 | 0.705 | 0.842 | 0.727
